Laboratory results as given in patent publication US10584115B2, “Substituted pyridine and pyrazine BMI-1 inhibitors” (PTC Therapeutics, Inc., priority 2013, dated 2020).
Like-named read-outs stand apart in the source and are kept apart here.

Experiments:
[1] = system: Bmi-1 protein; assay: Sandwich ELISA Assay (Bmi-1 protein level in HT-1080 cells after compound treatment); assay type: cell-based
Summary of the method: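 Sandwich ELISA quantified Bmi-1 protein against recombinant standard (125–8000 pg/mL), with lysates captured overnight at 4 °C and signal by HRP/TMB at 450 nm (570 nm reference). Lysates came from HT-1080 cells incubated 40–48 h with test compounds in 0.5% DMSO.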

[2] = Table 1, Bmi-1 sandwich ELISA, read-out: ELISA EC50 value for Bmi-1 protein
[3] = read-out: ELISA EC50 value for Bmi-1 protein, Table 1, Bmi-1 sandwich ELISA

SMILES	EC50 [1, 2] [nM]	melting point [°C]	EC50 [1, 3] [nM]
CCc1nc(C)cn1-c1cncc(Nc2ccc(OC(F)F)cc2)n1 [compound 180, N-[4-(difluoromethoxy)phenyl]-6-(2-ethyl-4-methyl-1H-imidazol-1-yl)pyrazin-2-amine]	100 to 3000	168 to 169	
Cc1nc2cc(F)ccc2n1-c1cncc(Nc2ccc(OC(F)(F)F)cc2)n1 [compound 206, 6-(5-fluoro-2-methyl-1H-benzimidazol-1-yl)-N-[4-(trifluoromethoxy)phenyl]pyrazin-2-amine]	100 to 3000	248 to 250	
Fc1ccc2c(c1)nc(C1CC1)n2-c1cncc(Nc2ccc(OC(F)F)cc2)n1 [compound 227, 6-(2-cyclopropyl-5-fluoro-1H-benzimidazol-1-yl)-N-[4-(difluoromethoxy)phenyl]pyrazin-2-amine]	10 to 100	188 to 190	
Cc1nc2ccc(F)cc2n1-c1cncc(Nc2ccc(C(F)(F)F)cc2)n1 [compound 228, 6-(6-fluoro-2-methyl-1H-benzimidazol-1-yl)-N-[4-(trifluoromethyl)phenyl]pyrazin-2-amine]		243 to 245	1 to 10
Cc1nc2ccc(F)cc2n1-c1cncc(Nc2ccc(OC(F)(F)F)cc2)n1 [compound 230, 6-(6-fluoro-2-methyl-1H-benzimidazol-1-yl)-N-[4-(trifluoromethoxy)phenyl]pyrazin-2-amine]	10 to 100	215 to 217	
Cc1nc2ccc(F)cn2c1-c1cc(C#N)cc(Nc2ccc(OC(F)(F)F)cc2)n1 [compound 249, 2-(6-fluoro-2-methylimidazo[1,2-a]pyridin-3-yl)-6-{[4-(trifluoromethoxy)phenyl]amino}pyridine-4-carbonitrile]	10 to 100	209 to 210	
FC(F)(F)c1ccc(Nc2cncc(-c3c(C4CC4)nc4ccc(C(F)(F)F)cn34)n2)cc1 [compound 250, 6-[2-cyclopropyl-6-(trifluoromethyl)imidazo[1,2-a]pyridin-3-yl]-N-[4-(trifluoromethyl)phenyl]pyrazin-2-amine]		240 to 241	10 to 100
FC(F)(F)Oc1ccc(Nc2cncc(-c3c(C4CC4)nc4ccc(C(F)(F)F)cn34)n2)cc1 [compound 252, 6-[2-cyclopropyl-6-(trifluoromethyl)imidazo[1,2-a]pyridin-3-yl]-N-[4-(trifluoromethoxy)phenyl]pyrazin-2-amine]	100 to 3000	213 to 215	
Cc1nn(CC(F)(F)F)c(C)c1-c1cncc(Nc2ccc(C(F)(F)F)cc2)n1 [compound 253, 6-[3,5-dimethyl-1-(2,2,2-trifluoroethyl)-1H-pyrazol-4-yl]-N-[4-(trifluoromethyl)phenyl]pyrazin-2-amine]		90 to 91	1 to 10
Cc1nc2ccc(F)cc2n1-c1cc(C#N)cc(Nc2ccc(C(F)(F)F)cc2)n1 [compound 261, 2-(6-fluoro-2-methyl-1H-benzimidazol-1-yl)-6-{[4-(trifluoromethyl)phenyl]amino}pyridine-4-carbonitrile]	10 to 100	223 to 225	
Cc1nc2ccc(F)cc2n1-c1cc(C#N)cc(Nc2ccc(OC(F)F)cc2)n1 [compound 262, 2-{[4-(difluoromethoxy)phenyl]amino}-6-(6-fluoro-2-methyl-1H-benzimidazol-1-yl)pyridine-4-carbonitrile]	10 to 100	231 to 232	
Cc1nn(C)c(C)c1-c1cc(C#N)cc(Nc2ccc(OC(F)(F)F)cc2)n1 [compound 265, 2-{[4-(trifluoromethoxy)phenyl]amino}-6-(1,3,5-trimethyl-1H-pyrazol-4-yl)pyridine-4-carbonitrile]	10 to 100	135 to 136	
CC(=O)n1nc(C)c(-c2cncc(Nc3ccc(C(F)(F)F)cc3)n2)c1C [compound 277, 1-[3,5-dimethyl-4-(6-{[4-(trifluoromethyl)phenyl]amino}pyrazin-2-yl)-1H-pyrazol-1-yl]ethanone]	100 to 3000	199 to 200	
CCOC(=O)n1nc(C)c(-c2cncc(Nc3ccc(C(F)(F)F)cc3)n2)c1C [compound 278, ethyl 3,5-dimethyl-4-(6-{[4-(trifluoromethyl)phenyl]amino}pyrazin-2-yl)-1H-pyrazole-1-carboxylate]	100 to 3000	122 to 123	
CCOC(=O)n1nc(C)c(-c2cncc(Nc3ccc(OC(F)F)cc3)n2)c1C [compound 279, ethyl 4-(6-{[4-(difluoromethoxy)phenyl]amino}pyrazin-2-yl)-3,5-dimethyl-1H-pyrazole-1-carboxylate]	100 to 3000	92 to 93	
Cc1c(-c2cncc(Nc3ccc(OC(F)(F)F)cc3)n2)c(C(F)(F)F)nn1C [compound 281, 6-[1,5-dimethyl-3-(trifluoromethyl)-1H-pyrazol-4-yl]-N-[4-(trifluoromethoxy)phenyl]pyrazin-2-amine]	100 to 3000	157 to 158	
Cc1nc2ccc(F)cn2c1-c1cncc(Nc2ccc(C(F)(F)F)c(F)c2)n1 [compound 310, 6-(6-fluoro-2-methylimidazo[1,2-a]pyridin-3-yl)-N-[3-fluoro-4-(trifluoromethyl)phenyl]pyrazin-2-amine]	10 to 100	216 to 218	
Cc1nc2ccc(F)cn2c1-c1cc(C#N)cc(Nc2ccc(C(F)(F)F)c(F)c2)n1 [compound 312, 2-(6-fluoro-2-methylimidazo[1,2-a]pyridin-3-yl)-6-{[3-fluoro-4-(trifluoromethyl)phenyl]amino}pyridine-4-carbonitrile]	10 to 100	245 to 249	

Second part, led by results:

EC50 [1, 2] [nM]	melting point [°C]	SMILES	EC50 [1, 3] [nM]
< 1	180 to 182	Cc1nc2ccccn2c1-c1cncc(Nc2ccc(C(F)(F)F)cc2)n1 [compound 202, 6-(2-methylimidazo[1,2-a]pyridin-3-yl)-N-[4-(trifluoromethyl)phenyl]pyrazin-2-amine]	
10 to 100	272 to 275	Cc1nc2cc(F)ccc2n1-c1cncc(Nc2ccc(C(F)(F)F)cc2)n1 [compound 204, 6-(5-fluoro-2-methyl-1H-benzimidazol-1-yl)-N-[4-(trifluoromethyl)phenyl]pyrazin-2-amine]	
10 to 100	239 to 241	Cc1nc2cc(F)ccc2n1-c1cncc(Nc2ccc(OC(F)F)cc2)n1 [compound 205, N-[4-(difluoromethoxy)phenyl]-6-(5-fluoro-2-methyl-1H-benzimidazol-1-yl)pyrazin-2-amine]	
1 to 10	200 to 202	Cc1nc2ccc(F)cc2n1-c1cncc(Nc2ccc(OC(F)F)cc2)n1 [compound 229, N-[4-(difluoromethoxy)phenyl]-6-(6-fluoro-2-methyl-1H-benzimidazol-1-yl)pyrazin-2-amine]	
1 to 10	160 to 162	Cc1nc2ccc(F)cn2c1-c1cncc(Nc2ccc(C(F)(F)F)cc2)n1 [compound 244, 6-(6-fluoro-2-methylimidazo[1,2-a]pyridin-3-yl)-N-[4-(trifluoromethyl)phenyl]pyrazin-2-amine]	
1 to 10	171 to 173	Cc1nc2ccc(F)cn2c1-c1cncc(Nc2ccc(OC(F)F)cc2)n1 [compound 245, N-[4-(difluoromethoxy)phenyl]-6-(6-fluoro-2-methylimidazo[1,2-a]pyridin-3-yl)pyrazin-2-amine]	
1 to 10	163 to 165	Cc1nc2ccc(F)cn2c1-c1cncc(Nc2ccc(OC(F)(F)F)cc2)n1 [compound 246, 6-(6-fluoro-2-methylimidazo[1,2-a]pyridin-3-yl)-N-[4-(trifluoromethoxy)phenyl]pyrazin-2-amine]	
1 to 10	241 to 243	Cc1nc2ccc(F)cn2c1-c1cc(C#N)cc(Nc2ccc(C(F)(F)F)cc2)n1 [compound 247, 2-(6-fluoro-2-methylimidazo[1,2-a]pyridin-3-yl)-6-{[4-(trifluoromethyl)phenyl]amino}pyridine-4-carbonitrile]	
1 to 10	221 to 223	Cc1nc2ccc(F)cn2c1-c1cc(C#N)cc(Nc2ccc(OC(F)F)cc2)n1 [compound 248, 2-{[4-(difluoromethoxy)phenyl]amino}-6-(6-fluoro-2-methylimidazo[1,2-a]pyridin-3-yl)pyridine-4-carbonitrile]	
1 to 10	267 to 269	CCc1nc2ccc(F)cc2n1-c1cncc(Nc2ccc(C(F)(F)F)cc2)n1 [compound 259, 6-(2-ethyl-6-fluoro-1H-benzimidazol-1-yl)-N-[4-(trifluoromethyl)phenyl]pyrazin-2-amine]	
1 to 10	205 to 207	CCc1nc2ccc(F)cc2n1-c1cncc(Nc2ccc(OC(F)F)cc2)n1 [compound 260, N-[4-(difluoromethoxy)phenyl]-6-(2-ethyl-6-fluoro-1H-benzimidazol-1-yl)pyrazin-2-amine]	
1 to 10	182 to 183	Cc1nn(C)c(C)c1-c1cc(C#N)cc(Nc2ccc(C(F)(F)F)cc2)n1 [compound 263, 2-{[4-(trifluoromethyl)phenyl]amino}-6-(1,3,5-trimethyl-1H-pyrazol-4-yl)pyridine-4-carbonitrile]	
1 to 10	144 to 145	Cc1nn(C)c(C)c1-c1cc(C#N)cc(Nc2ccc(OC(F)F)cc2)n1 [compound 264, 2-{[4-(difluoromethoxy)phenyl]amino}-6-(1,3,5-trimethyl-1H-pyrazol-4-yl)pyridine-4-carbonitrile]	
1 to 10	231 to 233	Cc1nc2ccc(F)cn2c1-c1cc(C#N)cc(Nc2ccc(OC(F)F)c(F)c2)n1 [compound 311, 2-{[4-(difluoromethoxy)-3-fluorophenyl]amino}-6-(6-fluoro-2-methylimidazo[1,2-a]pyridin-3-yl)pyridine-4-carbonitrile]	
